Experimental findings from patent publication US11076595B2, “1-(n,n-disubstituted carbamoyl) 4-(substituted sulfonyl)triazolin-5-one derivative, 4-(n,n-disubstituted carbamoyl) 1-(substituted sulfonyl)triazolin-5-one derivative, and herbicide containing said derivative as active ingredient” (HOKKO CHEMICAL INDUSTRY CO., LTD., priority 2017, dated 2021) are described below.

Common to all, as to format: in vivo
The subject of test [1] is Scirpus juncoides. The test can be described thus: Test Example 12: herbicidal effect test by treatment during growing period in paddy field. Particulars: 120 g/10a; treatment seven days after sowing in flooded paddy pot; assessed 14 days after treatment. The method in brief: (§1)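 Seeds (30 per species) are sown shallowly into fertilized, puddled paddy soil kept under ~3 cm of water in a greenhouse. One week later, compound formulated as an emulsifiable concentrate is applied dropwise to the water at 120 g a.i./10 are. After 14 days, dry weights give percent suppression against untreated controls.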

The test system of test [2] is Echinochloa crus-galli. The description is as above. Conditions: 120 g/10a; treatment seven days after sowing in flooded paddy pot; assessed 14 days after treatment. The method in brief: as §1
For test [3], the system named is Monochoria vaginalis. The description is as above. Particulars: 120 g/10a; treatment seven days after sowing in flooded paddy pot; assessed 14 days after treatment. The method in brief: as §1
Test [4] deals with Lindernia pyxidaria. The test is described as above. Conditions: 120 g/10a; treatment seven days after sowing in flooded paddy pot; assessed 14 days after treatment. The method in brief: as §1
Test [5] concerns crabgrass. The test can be described thus: Test Example 13: herbicidal effect test by soil treatment in upland field. Particulars: 120 g/10a, 14 days after treatment. The method in brief:
(§2)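 Weed suppression rate (%) computed at 14 days as 1 minus treated/untreated mean dry weight, times 100, with two replicates per concentration. Emulsifiable concentrate diluted in water was applied at 120 g a.i. per 10 are (100 liter per 10 are) onto soil surface one day post-sowing of 20 seeds each in 36 cm^2 pots of alluvial soil.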

The subject of test [6] is Amaranthus viridis. The test is described as above. Conditions: 120 g/10a, 14 days after treatment. An outline of the steps:
as §2

The subject of test [7] is Echinochloa crus-galli. The description is as above. Conditions: 120 g/10a, 14 days after treatment. An outline of the steps:
as §2

The test system of test [8] is Chenopodium album. The description is as above. Particulars: 120 g/10a, 14 days after treatment. An outline of the steps: as §2
The test system of test [9] is Scirpus juncoides. The test can be described thus: Test Example 11: herbicidal effect test by soil treatment in paddy field. Conditions: 120 g/10a active ingredient, 14 days after treatment. The method in brief:
(§3)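 Pre-emergence flooded-paddy test: the water-diluted emulsifiable concentrate, 120 g active ingredient per 10 are, was dripped into pots immediately after seeding, with water held at about 3 cm. Two replicate pots per rate; 14 days after treatment, plant dry weight versus untreated pots gave the weed suppression rate.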

Test [10] relates to Echinochloa crus-galli. The description is as above. Particulars: 120 g/10a active ingredient, 14 days after treatment. An outline of the steps: as §3
Test [11] relates to Monochoria vaginalis. The test is described as above. Conditions: 120 g/10a active ingredient, 14 days after treatment. An outline of the steps:
as §3

Test [12] deals with Lindernia pyxidaria. The test is described as above. Conditions: 120 g/10a active ingredient, 14 days after treatment. The method in brief:
as §3

The test system of test [13] is crabgrass. Put plainly: Test Example 14: herbicidal effect test by foliage treatment in upland field. Conditions: 7 days after sowing, 120 g/10a, 14 days after treatment. The method in brief: (§4)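 Post-sowing spray at day 7, 120 g a.i./10 are in 100 L water/10 are; alluvial soil pots, duplicate plots; endpoint day 14, % suppression from dry weight relative to untreated.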

Test [14] concerns Chenopodium album. Described as above. Conditions: 7 days after sowing, 120 g/10a, 14 days after treatment. An outline of the steps:
as §4

The subject of test [15] is Amaranthus viridis. Described as above. Particulars: 7 days after sowing, 120 g/10a, 14 days after treatment. The method in brief: as §4
Test [16] has as its system Echinochloa crus-galli. The test is described as above. Conditions: 7 days after sowing, 120 g/10a, 14 days after treatment. The method in brief:
as §4

Turning to `CC(C)N(C(=O)n1cnn(S(=O)(=O)c2cccs2)c1=O)c1ccc(F)cc1F` [Compound 11-1022], the “Weed suppression rate (%) Scirpus juncoides” value in the test on Scirpus juncoides [1] was 90%; in the test on Scirpus juncoides [9] it was 100%. Further, the entries for the “Weed suppression rate (%) Echinochloa crus-galli” value in the test with Echinochloa crus-galli [2] and with Echinochloa crus-galli [10] were 90% and 100%, respectively. Also, the “Weed suppression rate (%) Monochoria vaginalis” value in the test with Monochoria vaginalis [3] and in the test on Monochoria vaginalis [11] was 90% each time. In addition, the “Weed suppression rate (%) Lindemia pyxidaria” value with Lindernia pyxidaria [4] stood at 90%; with Lindernia pyxidaria [12], 100%. In addition, the “herbicidal effect, Crabgrass” value is 100% in the test on crabgrass [5] and 70% with crabgrass [13]. In addition, the “herbicidal effect, Amaranthus viridis” value in the test with Amaranthus viridis [6] was determined as 70%; with Amaranthus viridis [15] it was 0%. Besides, the “herbicidal effect, Echinochloa crus-galli” value with Echinochloa crus-galli [7] is 100%; in the test on Echinochloa crus-galli [16] it was 90%. The results for the “herbicidal effect, Chenopodium album” value with Chenopodium album [8] and with Chenopodium album [14] were 100% and 40%, respectively.

Take `CC(C)N(C(=O)n1cnn(S(=O)(=O)c2ccccc2Cl)c1=O)c1ccc(F)cc1F` [Compound 11-512]: the “Weed suppression rate (%) Scirpus juncoides” value with Scirpus juncoides [1] turned out to be 90%; in the test with Scirpus juncoides [9], 100%. Further, the “Weed suppression rate (%) Echinochloa crus-galli” value in the test with Echinochloa crus-galli [2] and in the test on Echinochloa crus-galli [10] was 100% each time. For the same compound, the “Weed suppression rate (%) Monochoria vaginalis” value with Monochoria vaginalis [3] and in the test with Monochoria vaginalis [11] was 100% throughout. In addition, the “Weed suppression rate (%) Lindemia pyxidaria” value in the test on Lindernia pyxidaria [4] and in the test with Lindernia pyxidaria [12] was 100% in each case. Further, the “herbicidal effect, Crabgrass” value in the test with crabgrass [5] was 100%; in the test with crabgrass [13] it was 90%. Besides, the “herbicidal effect, Amaranthus viridis” value with Amaranthus viridis [6] was 70%; with Amaranthus viridis [15] it was 40%. The “herbicidal effect, Echinochloa crus-galli” value came out at 100% in the test with Echinochloa crus-galli [7] and 80% in the test with Echinochloa crus-galli [16]. For the same compound, the “herbicidal effect, Chenopodium album” value with Chenopodium album [8] and in the test with Chenopodium album [14] was 50% in each case.

`CC(C)N(C(=O)n1cnn(S(=O)(=O)C2CC2)c1=O)c1ccccc1F` [Compound 11-160]: the “Weed suppression rate (%) Scirpus juncoides” value in the test on Scirpus juncoides [1] and in the test with Scirpus juncoides [9] was 90% in each case. The “Weed suppression rate (%) Echinochloa crus-galli” value with Echinochloa crus-galli [2] and in the test on Echinochloa crus-galli [10] was 100% in each case. Moreover, the “Weed suppression rate (%) Monochoria vaginalis” value in the test with Monochoria vaginalis [3] and in the test with Monochoria vaginalis [11] was 70% in each case. Besides, the “Weed suppression rate (%) Lindemia pyxidaria” value in the test on Lindernia pyxidaria [4] and in the test on Lindernia pyxidaria [12] was 90% in each case. Also, the “herbicidal effect, Crabgrass” value in the test on crabgrass [5] and with crabgrass [13] was 90% throughout. Also, the “herbicidal effect, Amaranthus viridis” value with Amaranthus viridis [6] and in the test with Amaranthus viridis [15] was 90% each time. Further, the “herbicidal effect, Echinochloa crus-galli” value with Echinochloa crus-galli [7] and in the test with Echinochloa crus-galli [16] was 80% throughout. Also, the “herbicidal effect, Chenopodium album” value in the test on Chenopodium album [8] and in the test on Chenopodium album [14] was 80% throughout.

Consider `CC(C)N(C(=O)n1cnn(S(=O)(=O)C(C)C)c1=O)c1ncc(Cl)cc1Cl` [Compound 11-86], for which the “Weed suppression rate (%) Scirpus juncoides” value in the test on Scirpus juncoides [1] and in the test on Scirpus juncoides [9] was 90% each time. Also, the “Weed suppression rate (%) Echinochloa crus-galli” value with Echinochloa crus-galli [2] and with Echinochloa crus-galli [10] was 90% in each case. In addition, the “Weed suppression rate (%) Monochoria vaginalis” value in the test with Monochoria vaginalis [3] is 90%; in the test with Monochoria vaginalis [11], 80%. The entries for the “Weed suppression rate (%) Lindemia pyxidaria” value with Lindernia pyxidaria [4] and with Lindernia pyxidaria [12] were 90% and 80%, respectively. The “herbicidal effect, Crabgrass” value in the test on crabgrass [5] and in the test on crabgrass [13] was 90% in each case. For the same compound, the “herbicidal effect, Amaranthus viridis” value in the test on Amaranthus viridis [6] and in the test on Amaranthus viridis [15] was 90% throughout. Moreover, the “herbicidal effect, Echinochloa crus-galli” value with Echinochloa crus-galli [7] and in the test on Echinochloa crus-galli [16] was 80% throughout. In addition, the “herbicidal effect, Chenopodium album” value in the test on Chenopodium album [8] and in the test on Chenopodium album [14] was 80% in each case.

For `CC(C)N(C(=O)n1cnn(S(=O)(=O)C2CCOCC2)c1=O)c1ccc(F)cc1F` [Compound 11-1109], the “Weed suppression rate (%) Scirpus juncoides” value with Scirpus juncoides [1] and in the test with Scirpus juncoides [9] was 90% in each case. Further, the “Weed suppression rate (%) Echinochloa crus-galli” value with Echinochloa crus-galli [2] and in the test on Echinochloa crus-galli [10] was 90% throughout. The “Weed suppression rate (%) Monochoria vaginalis” value in the test with Monochoria vaginalis [3] and with Monochoria vaginalis [11] was 80% in each case. Besides, the “Weed suppression rate (%) Lindemia pyxidaria” value in the test on Lindernia pyxidaria [4] and in the test with Lindernia pyxidaria [12] was 80% throughout. Further, the figures for the “herbicidal effect, Crabgrass” value with crabgrass [5] and in the test with crabgrass [13] were 100% and 90%, respectively. The figures for the “herbicidal effect, Amaranthus viridis” value with Amaranthus viridis [6] and in the test on Amaranthus viridis [15] were 100% and 90%, respectively. Also, the “herbicidal effect, Echinochloa crus-galli” value in the test with Echinochloa crus-galli [7] was found to be 100%; in the test with Echinochloa crus-galli [16], 80%. Also, the “herbicidal effect, Chenopodium album” value in the test with Chenopodium album [8] amounted to 100%; with Chenopodium album [14], 80%.

Turning to `CC(C)N(C(=O)n1cnn(S(C)(=O)=O)c1=O)c1ccc(F)cc1Cl` [Compound 11-19], the “Weed suppression rate (%) Scirpus juncoides” value in the test with Scirpus juncoides [1] and in the test on Scirpus juncoides [9] was 90% in each case. In addition, the “Weed suppression rate (%) Echinochloa crus-galli” value in the test on Echinochloa crus-galli [2] and in the test on Echinochloa crus-galli [10] was 90% in each case. The “Weed suppression rate (%) Monochoria vaginalis” value in the test with Monochoria vaginalis [3] and in the test on Monochoria vaginalis [11] was 80% each time. Moreover, the “Weed suppression rate (%) Lindemia pyxidaria” value in the test with Lindernia pyxidaria [4] and in the test on Lindernia pyxidaria [12] was 80% in each case. Besides, the “herbicidal effect, Crabgrass” value in the test on crabgrass [5] and in the test with crabgrass [13] was 90% each time. Besides, the “herbicidal effect, Amaranthus viridis” value in the test on Amaranthus viridis [6] and in the test with Amaranthus viridis [15] was 90% each time. Also, the “herbicidal effect, Echinochloa crus-galli” value with Echinochloa crus-galli [7] and in the test with Echinochloa crus-galli [16] was 80% throughout. In addition, the “herbicidal effect, Chenopodium album” value in the test on Chenopodium album [8] and with Chenopodium album [14] was 80% each time.

For `CC(C)N(C(=O)n1cnn(S(=O)(=O)C2CCCCC2)c1=O)c1ccc(F)cc1Cl` [Compound 11-301], the “Weed suppression rate (%) Scirpus juncoides” value with Scirpus juncoides [1] and in the test with Scirpus juncoides [9] was 90% in each case. Besides, the “Weed suppression rate (%) Echinochloa crus-galli” value in the test with Echinochloa crus-galli [2] and in the test with Echinochloa crus-galli [10] was 90% throughout. The “Weed suppression rate (%) Monochoria vaginalis” value in the test with Monochoria vaginalis [3] and in the test with Monochoria vaginalis [11] was 80% in each case. In addition, the “Weed suppression rate (%) Lindemia pyxidaria” value with Lindernia pyxidaria [4] and in the test with Lindernia pyxidaria [12] was 80% each time. Further, the “herbicidal effect, Crabgrass” value with crabgrass [5] and in the test with crabgrass [13] was 90% each time. The “herbicidal effect, Amaranthus viridis” value in the test with Amaranthus viridis [6] and in the test on Amaranthus viridis [15] was 90% in each case. The “herbicidal effect, Echinochloa crus-galli” value in the test on Echinochloa crus-galli [7] and in the test on Echinochloa crus-galli [16] was 80% in each case. Further, the “herbicidal effect, Chenopodium album” value in the test on Chenopodium album [8] and in the test with Chenopodium album [14] was 80% in each case.

Take `Cc1cc(C)c(S(=O)(=O)n2ncn(C(=O)N(c3ccc(F)cc3F)C(C)C)c2=O)c(C)c1` [Compound 11-863]: the “Weed suppression rate (%) Scirpus juncoides” value in the test on Scirpus juncoides [1] is listed as 90%; in the test on Scirpus juncoides [9] it was 100%. In addition, the “Weed suppression rate (%) Echinochloa crus-galli” value was 90% in the test with Echinochloa crus-galli [2] and 100% in the test on Echinochloa crus-galli [10]. For the same compound, the “Weed suppression rate (%) Monochoria vaginalis” value turned out to be 90% in the test with Monochoria vaginalis [3] and 100% in the test with Monochoria vaginalis [11]. Further, the results for the “Weed suppression rate (%) Lindemia pyxidaria” value with Lindernia pyxidaria [4] and in the test on Lindernia pyxidaria [12] were 90% and 100%, respectively. Further, the “herbicidal effect, Crabgrass” value in the test on crabgrass [5] came out at 70%; with crabgrass [13], 60%. Moreover, the “herbicidal effect, Amaranthus viridis” value with Amaranthus viridis [6] and with Amaranthus viridis [15] was 50% throughout. Moreover, the “herbicidal effect, Echinochloa crus-galli” value in the test on Echinochloa crus-galli [7] was 60%; with Echinochloa crus-galli [16], 70%. In addition, the figures for the “herbicidal effect, Chenopodium album” value in the test with Chenopodium album [8] and in the test with Chenopodium album [14] were 50% and 70%, respectively.
